Species on record: Rattus norvegicus
Test: DrugMatrix - Regimen: Daily Repeat
Type: toxicity, organism-based, Sprague-Dawley
Set-up: regimen Daily Repeat, gender Male, age 6-8 weeks
Settings: in vivo, iv, vehicle 100 % SALINE; for ABSOLUTE BASOPHIL / ABSOLUTE EOSINOPHIL / ABSOLUTE LYMPHOCYTE / ABSOLUTE MONOCYTE / ABSOLUTE SEGMENTED NEUTROPHIL / BASOPHIL / EOSINOPHIL / ERYTHROCYTE COUNT / HEMATOCRIT / HEMOGLOBIN / LEUKOCYTE COUNT / LYMPHOCYTE / MEAN CORPUSCULAR HEMOGLOBIN / MEAN CORPUSCULAR HEMOGLOBIN CONCENTRATION / MEAN CORPUSCULAR VOLUME / MONOCYTE / NEUTROPHIL / NUCLEATED RED BLOOD CELLS / PLATELET COUNT: tissue Blood; for ALANINE AMINOTRANSFERASE / ALBUMIN / ALKALINE PHOSPHATASE / ASPARTATE AMINOTRANSFERASE / BLOOD UREA NITROGEN / CARBON DIOXIDE / CHLORIDE / CHOLESTEROL / CREATINE PHOSPHOKINASE / CREATININE / GLUCOSE / LACTATE DEHYDROGENASE / LIPASE / PHOSPHORUS / POTASSIUM / SODIUM / TOTAL BILIRUBIN / TOTAL PROTEIN / URIC ACID: tissue Plasma
[1] = 27 mg/kg, 72 h, dose level High, time 3 day
[2] = 27 mg/kg, 120 h, dose level High, time 5 day
[3] = […], 72 h, dose 2.7 mg/Kg, dose level Low, time 3 day
[4] = […], 120 h, dose 2.7 mg/Kg, dose level Low, time 5 day

`COC(=O)CCc1ccc(OCC(O)CNC(C)C)cc1` (configuration not stated) [ESMOLOL] was tested, and the “ABSOLUTE BASOPHIL” value [1] was 0 CELLS/uL, the “ABSOLUTE EOSINOPHIL” value [1] was 31.33 CELLS/uL and the “ABSOLUTE LYMPHOCYTE” value [1] was 10926.67 CELLS/uL. The “ABSOLUTE MONOCYTE” value [1] was 68.67 CELLS/uL, the “ABSOLUTE SEGMENTED NEUTROPHIL” value [1] was 673.33 CELLS/uL and the BASOPHIL [1] was 0%. The EOSINOPHIL [1] was 0.33%, the “ERYTHROCYTE COUNT” value [1] was 5.92 x10E6/uL and the HEMATOCRIT [1] was 37.53%. The HEMOGLOBIN [1] was 14.47 G/DL, the “LEUKOCYTE COUNT” value [1] was 11.7 x10E3/uL and the LYMPHOCYTE [1] was 92.67%. For the same molecule, the “MEAN CORPUSCULAR HEMOGLOBIN” value [1] was 24.37 pg, the “MEAN CORPUSCULAR HEMOGLOBIN CONCENTRATION” value [1] was 38.63 G/DL and the “MEAN CORPUSCULAR VOLUME” value [1] was 63.03 fL. The MONOCYTE [1] was 0.67%, the NEUTROPHIL [1] was 6.33% and the “NUCLEATED RED BLOOD CELLS” value [1] was 0 /100WBC. For the same molecule, the “PLATELET COUNT” value [1] was 1320 x10E3/uL, the “ALANINE AMINOTRANSFERASE” value [1] was 71.33 u/L and the ALBUMIN [1] was 4.1 G/DL. For the same molecule, the “ALKALINE PHOSPHATASE” value [1] was 456.33 u/L, the “ASPARTATE AMINOTRANSFERASE” value [1] was 161 u/L and the “BLOOD UREA NITROGEN” value [1] was 16.67 mg/dL. For the same molecule, the “CARBON DIOXIDE” value [1] was 28.67 mmol/L, the CHLORIDE [1] was 100.33 MEQ/L and the CHOLESTEROL [1] was 75.67 mg/dL. The “CREATINE PHOSPHOKINASE” value [1] was 1751 u/L, the CREATININE [1] was 0.23 mg/dL and the GLUCOSE [1] was 225 mg/dL. For the same molecule, the “LACTATE DEHYDROGENASE” value [1] was 862 u/L, the LIPASE [1] was 12.33 u/L and the PHOSPHORUS [1] was 14.17 mg/dL. For the same molecule, the POTASSIUM [1] was 8.56 MEQ/L, the SODIUM [1] was 142.57 MEQ/L and the “TOTAL BILIRUBIN” value [1] was 0.4 mg/dL. For the same molecule, the “TOTAL PROTEIN” value [1] was 5.8 G/DL, the “URIC ACID” value [1] was 4.13 mg/dL and the “ABSOLUTE BASOPHIL” value [2] was 0 CELLS/uL. The “ABSOLUTE EOSINOPHIL” value [2] was 0 CELLS/uL, the “ABSOLUTE LYMPHOCYTE” value [2] was 16580.67 CELLS/uL and the “ABSOLUTE MONOCYTE” value [2] was 300 CELLS/uL. For the same molecule, the “ABSOLUTE SEGMENTED NEUTROPHIL” value [2] was 1652.67 CELLS/uL, the BASOPHIL [2] was 0% and the EOSINOPHIL [2] was 0%. For the same molecule, the “ERYTHROCYTE COUNT” value [2] was 5.69 x10E6/uL, the HEMATOCRIT [2] was 36.33% and the HEMOGLOBIN [2] was 14.23 G/DL. The “LEUKOCYTE COUNT” value [2] was 18.53 x10E3/uL, the LYMPHOCYTE [2] was 89.33% and the “MEAN CORPUSCULAR HEMOGLOBIN” value [2] was 25 pg. The “MEAN CORPUSCULAR HEMOGLOBIN CONCENTRATION” value [2] was 39.2 G/DL, the “MEAN CORPUSCULAR VOLUME” value [2] was 63.8 fL and the MONOCYTE [2] was 1.67%. For the same molecule, the NEUTROPHIL [2] was 9%, the “NUCLEATED RED BLOOD CELLS” value [2] was 0 /100WBC and the “PLATELET COUNT” value [2] was 1133.67 x10E3/uL. For the same molecule, the “ALANINE AMINOTRANSFERASE” value [2] was 63.33 u/L, the ALBUMIN [2] was 4.27 G/DL and the “ALKALINE PHOSPHATASE” value [2] was 363.67 u/L. For the same molecule, the “ASPARTATE AMINOTRANSFERASE” value [2] was 126 u/L, the “BLOOD UREA NITROGEN” value [2] was 15.33 mg/dL and the “CARBON DIOXIDE” value [2] was 27.33 mmol/L. For the same molecule, the CHLORIDE [2] was 99.67 MEQ/L, the CHOLESTEROL [2] was 70.33 mg/dL and the “CREATINE PHOSPHOKINASE” value [2] was 284 u/L. The CREATININE [2] was 0.22 mg/dL, the GLUCOSE [2] was 147.33 mg/dL and the “LACTATE DEHYDROGENASE” value [2] was 238.67 u/L. The LIPASE [2] was 9.33 u/L, the PHOSPHORUS [2] was 11 mg/dL and the POTASSIUM [2] was 6.94 MEQ/L. The SODIUM [2] was 142.83 MEQ/L, the “TOTAL BILIRUBIN” value [2] was 0.17 mg/dL and the “TOTAL PROTEIN” value [2] was 6.3 G/DL. The “URIC ACID” value [2] was 1.47 mg/dL, the “ABSOLUTE BASOPHIL” value [3] was 0 CELLS/uL and the “ABSOLUTE EOSINOPHIL” value [3] was 0 CELLS/uL. For the same molecule, the “ABSOLUTE LYMPHOCYTE” value [3] was 13243.33 CELLS/uL, the “ABSOLUTE MONOCYTE” value [3] was 97.67 CELLS/uL and the “ABSOLUTE SEGMENTED NEUTROPHIL” value [3] was 1325.67 CELLS/uL. The BASOPHIL [3] was 0%, the EOSINOPHIL [3] was 0% and the “ERYTHROCYTE COUNT” value [3] was 5.56 x10E6/uL. The HEMATOCRIT [3] was 35.9%, the HEMOGLOBIN [3] was 14.23 G/DL and the “LEUKOCYTE COUNT” value [3] was 14.67 x10E3/uL. The LYMPHOCYTE [3] was 90.33%, the “MEAN CORPUSCULAR HEMOGLOBIN” value [3] was 25.77 pg and the “MEAN CORPUSCULAR HEMOGLOBIN CONCENTRATION” value [3] was 39.73 G/DL. The “MEAN CORPUSCULAR VOLUME” value [3] was 64.73 fL, the MONOCYTE [3] was 0.67% and the NEUTROPHIL [3] was 9%. The “NUCLEATED RED BLOOD CELLS” value [3] was 0 /100WBC, the “PLATELET COUNT” value [3] was 1093.67 x10E3/uL and the “ALANINE AMINOTRANSFERASE” value [3] was 50 u/L. For the same molecule, the ALBUMIN [3] was 4.43 G/DL, the “ALKALINE PHOSPHATASE” value [3] was 440 u/L and the “ASPARTATE AMINOTRANSFERASE” value [3] was 82 u/L. For the same molecule, the “BLOOD UREA NITROGEN” value [3] was 17.33 mg/dL, the “CARBON DIOXIDE” value [3] was 28.67 mmol/L and the CHLORIDE [3] was 100.33 MEQ/L. The CHOLESTEROL [3] was 69.33 mg/dL, the “CREATINE PHOSPHOKINASE” value [3] was 423.67 u/L and the CREATININE [3] was 0.22 mg/dL. The GLUCOSE [3] was 193 mg/dL, the “LACTATE DEHYDROGENASE” value [3] was 155 u/L and the LIPASE [3] was 9 u/L. The PHOSPHORUS [3] was 12.67 mg/dL, the POTASSIUM [3] was 7.24 MEQ/L and the SODIUM [3] was 143.23 MEQ/L. The “TOTAL BILIRUBIN” value [3] was 0.23 mg/dL, the “TOTAL PROTEIN” value [3] was 5.97 G/DL and the “URIC ACID” value [3] was 2.6 mg/dL. For the same molecule, the “ABSOLUTE BASOPHIL” value [4] was 0 CELLS/uL, the “ABSOLUTE EOSINOPHIL” value [4] was 0 CELLS/uL and the “ABSOLUTE LYMPHOCYTE” value [4] was 9825 CELLS/uL. The “ABSOLUTE MONOCYTE” value [4] was 143 CELLS/uL, the “ABSOLUTE SEGMENTED NEUTROPHIL” value [4] was 698.67 CELLS/uL and the BASOPHIL [4] was 0%. For the same molecule, the EOSINOPHIL [4] was 0%, the “ERYTHROCYTE COUNT” value [4] was 6.36 x10E6/uL and the HEMATOCRIT [4] was 40.2%. The HEMOGLOBIN [4] was 15.63 G/DL, the “LEUKOCYTE COUNT” value [4] was 10.67 x10E3/uL and the LYMPHOCYTE [4] was 92%. For the same molecule, the “MEAN CORPUSCULAR HEMOGLOBIN” value [4] was 24.57 pg, the “MEAN CORPUSCULAR HEMOGLOBIN CONCENTRATION” value [4] was 38.87 G/DL and the “MEAN CORPUSCULAR VOLUME” value [4] was 63.2 fL. For the same molecule, the MONOCYTE [4] was 1.33%, the NEUTROPHIL [4] was 6.67% and the “NUCLEATED RED BLOOD CELLS” value [4] was 0.33 /100WBC. The “PLATELET COUNT” value [4] was 1330 x10E3/uL, the “ALANINE AMINOTRANSFERASE” value [4] was 35.67 u/L and the ALBUMIN [4] was 4.67 G/DL. The “ALKALINE PHOSPHATASE” value [4] was 337 u/L, the “ASPARTATE AMINOTRANSFERASE” value [4] was 68.67 u/L and the “BLOOD UREA NITROGEN” value [4] was 21.67 mg/dL. For the same molecule, the “CARBON DIOXIDE” value [4] was 29.67 mmol/L, the CHLORIDE [4] was 103 MEQ/L and the CHOLESTEROL [4] was 101 mg/dL. For the same molecule, the “CREATINE PHOSPHOKINASE” value [4] was 276 u/L, the CREATININE [4] was 0.21 mg/dL and the GLUCOSE [4] was 155 mg/dL. For the same molecule, the “LACTATE DEHYDROGENASE” value [4] was 214.33 u/L, the LIPASE [4] was 10 u/L and the PHOSPHORUS [4] was 12.37 mg/dL. The POTASSIUM [4] was 6.64 MEQ/L, the SODIUM [4] was 148.6 MEQ/L and the “TOTAL BILIRUBIN” value [4] was 0.23 mg/dL. For the same molecule, the “TOTAL PROTEIN” value [4] was 6.97 G/DL and the “URIC ACID” value [4] was 2 mg/dL.

Source: ChEMBL document CHEMBL3885881, “DrugMatrix”
